Patent US20260262643A1, “HERBICIDAL BENZOXAZINES” (FMC CORPORATION, priority 2022, published 2026)

Experiments:
[1] = tested on: goosegrass; experiment: Test C postemergence; assay type: in vivo, Eleusine indica; settings: 10 days
Source text: (§1) Seeds of plant species selected from barnyardgrass (Echinochloa crusgalli), blackgrass (Alopecurus myosuroides), corn (Zea mays), foxtail, giant (giant foxtail, Setaria faberi), green foxtail (Setaria viridis), goosegrass (Eleusine indica), kochia (Bassia scoparia), oat, wild (wild oat, Avena fatua), pigweed, palmer (palmer amaranth, palmer pigweed, Amaranthus palmeri), Pigweed, Redroot (redroot pigweed, Amaranthus retroflexus), ragweed (common ragweed, Ambrosia artemisiifolia), ryegrass, Italian ([…] ryegrass, Lolium multiflorum), soybean (Glycine max), and wheat (Triticum aestivum) were planted into a blend of loam soil and sand and treated preemergence with a directed soil spray using test chemicals formulated in a non-phytotoxic solvent mixture which included a surfactant. At the same time, plants selected from these crops and weed species and also galium (catchweed bedstraw, Galium aparine) and horseweed (Erigeron canadensis) were planted in pots containing the same blend of loam soil and sand and treated with postemergence applications of test chemicals formulated in the same manner. Plants ranged in height from 2 to 10 cm and were in the one- to two-leaf stage for the postemergence treatment. Treated plants and untreated controls were maintained in a greenhouse for 10 days, after which time all treated plants were compared to untreated controls and visually evaluated for injury. Plant response ratings, summarized in Table C, are based on a 0 to 100 scale where 0 is no effect and 100 is complete control. A dash (-) response means no test result.

[2] = tested on: soybean; experiment: Test C preemergence; assay type: in vivo, Glycine max; settings: 0 to 100 scale (0 no effect, 100 complete control); for Soybean plant response rating: preemergence
Outline: (§2)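 Soil-applied (pre) and foliar (post, 1–2 leaf, 2–10 cm) sprays; surfactant-containing non-phytotoxic solvent vehicle; loam/sand substrate. Readout: visual % control at 10 d, greenhouse, versus untreated.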

[3] = tested on: corn; experiment: Test C postemergence; assay type: in vivo, Zea mays; settings: 10 days
Outline: as §2

[4] = tested on: ryegrass, Italian; experiment: Test C postemergence; assay type: in vivo, Lolium multiflorum; settings: 10 days
Outline: as §2

[5] = tested on: ducksalad; experiment: Test D flooded paddy test; assay type: in vivo, Heteranthera limosa; settings: 250 g ai/ha, applied to paddy water, visual rating after 13 to 14 days, scale 0 to 100 (0 no effect, 100 complete control)
Outline: (§3)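 At the 2-leaf stage, floodwater 3 cm deep received the test compound; that depth persisted throughout. Plants scored visually 13 to 14 days on, 0 (no effect) to 100 (complete control), dash indicating no result.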

[6] = tested on: galium; experiment: Test C postemergence; assay type: in vivo, Galium aparine; settings: 10 days
Outline: as §2

[7] = tested on: barnyardgrass; experiment: Test D flooded paddy test; assay type: in vivo, Echinochloa crus-galli; settings: 250 g ai/ha, applied to paddy water, visual rating after 13 to 14 days, scale 0 to 100 (0 no effect, 100 complete control)
Outline: as §3

[8] = tested on: oat, wild; experiment: Test C postemergence; assay type: in vivo, Avena fatua; settings: 10 days
Outline: as §2

[9] = tested on: kochia; experiment: Test C postemergence; assay type: in vivo, Bassia scoparia; settings: 10 days
Outline: as §2

[10] = tested on: oat, wild; experiment: Test C preemergence; assay type: in vivo, Avena fatua; settings: 0 to 100 scale (0 no effect, 100 complete control); for Oat, Wild plant response rating: preemergence
Outline: as §2

[11] = tested on: ragweed; experiment: Test C preemergence; assay type: in vivo, Ambrosia artemisiifolia; settings: 0 to 100 scale (0 no effect, 100 complete control); for Ragweed plant response rating: preemergence
Outline: as §2

[12] = tested on: ryegrass, Italian; experiment: Test C preemergence; assay type: in vivo, Lolium multiflorum; settings: 0 to 100 scale (0 no effect, 100 complete control); for Ryegrass, Italian plant response rating: preemergence
Outline: as §2

[13] = tested on: kochia; experiment: Test C preemergence; assay type: in vivo, Bassia scoparia; settings: 0 to 100 scale (0 no effect, 100 complete control); for Kochia plant response rating: preemergence
Outline: as §2

[14] = tested on: corn; experiment: Test C preemergence; assay type: in vivo, Zea mays; settings: 0 to 100 scale (0 no effect, 100 complete control); for Corn plant response rating: preemergence
Outline: as §2

[15] = tested on: blackgrass; experiment: Test C postemergence; assay type: in vivo, Alopecurus myosuroides; settings: 10 days
Outline: as §2

[16] = tested on: goosegrass; experiment: Test C preemergence; assay type: in vivo, Eleusine indica; settings: 0 to 100 scale (0 no effect, 100 complete control); for Goosegrass plant response rating: preemergence
Source text: as §1

[17] = tested on: ragweed; experiment: Test C postemergence; assay type: in vivo, Ambrosia artemisiifolia; settings: 10 days
Outline: as §2

[18] = tested on: rice; experiment: Test D flooded paddy test; assay type: in vivo, Oryza sativa; settings: 250 g ai/ha, applied to paddy water, visual rating after 13 to 14 days, scale 0 to 100 (0 no effect, 100 complete control)
Outline: as §3

[19] = tested on: wheat; experiment: Test C postemergence; assay type: in vivo, Triticum aestivum; settings: 10 days
Outline: as §2

[20] = tested on: soybean; experiment: Test C postemergence; assay type: in vivo, Glycine max; settings: 10 days
Outline: as §2

[21] = tested on: foxtail, giant; experiment: Test C postemergence; assay type: in vivo, Setaria faberi; settings: 10 days
Outline: as §2

[22] = tested on: pigweed, palmer; experiment: Test C postemergence; assay type: in vivo, Amaranthus palmeri; settings: 10 days
Outline: as §2

[23] = tested on: foxtail, giant; experiment: Test C preemergence; assay type: in vivo, Setaria faberi; settings: 0 to 100 scale (0 no effect, 100 complete control); for Foxtail, Giant plant response rating: preemergence
Outline: as §2

[24] = tested on: wheat; experiment: Test C preemergence; assay type: in vivo, Triticum aestivum; settings: 0 to 100 scale (0 no effect, 100 complete control); for Wheat plant response rating: preemergence
Outline: as §2

[25] = tested on: pigweed, palmer; experiment: Test C preemergence; assay type: in vivo, Amaranthus palmeri; settings: 0 to 100 scale (0 no effect, 100 complete control); for Pigweed, Palmer plant response rating: preemergence
Outline: as §2

[26] = tested on: blackgrass; experiment: Test C preemergence; assay type: in vivo, Alopecurus myosuroides; settings: 0 to 100 scale (0 no effect, 100 complete control); for Plant response rating, Blackgrass: Preemergence, 500 g ai/ha, visual rating after 10 days; for Blackgrass plant response rating: Test C, preemergence, 125 g ai/ha
Outline: as §2

[27] = tested on: horseweed; experiment: Test C postemergence; assay type: in vivo, Erigeron canadensis; settings: 10 days
Outline: as §2

[28] = tested on: sedge, umbrella; experiment: Test D flooded paddy test; assay type: in vivo, Cyperus difformis; settings: 250 g ai/ha, applied to paddy water, visual rating after 13 to 14 days, scale 0 to 100 (0 no effect, 100 complete control)
Outline: as §3

[29] = 125 g ai/ha, postemergence, 0 to 100 scale, 0 no effect, 100 complete control
[30] = Postemergence, 500 g ai/ha, visual 0 to 100 scale (0 no effect, 100 complete control)
[31] = Preemergence, 500 g ai/ha, visual rating after 10 days

Cc1cccc2c1O[C@@H](C)CN2C(=O)c1cccc(-n2nccn2)c1 [Compound 282]
0: Plant response rating, Goosegrass [1, 29] | Plant response rating, Goosegrass [1, 30] | Soybean plant response rating ([2]; 500 g ai/ha) | Soybean plant response rating ([2]; Test C, 125 g ai/ha) | Plant response rating, Corn [3, 29] | Plant response rating, Corn [3, 30] | Plant response rating, Ryegrass, Italian [4, 29] | Plant response rating, Ducksalad (Flood) [5] | Plant response rating, Galium [6, 29] | Plant response rating, Galium [6, 30] | Plant response rating, Barnyardgrass (Flood) [7] | Plant response rating, Oat, Wild [8, 29] | Plant response rating, Kochia [9, 29] | Oat, Wild plant response rating ([10]; 500 g ai/ha) | Oat, Wild plant response rating ([10]; Test C, 125 g ai/ha) | Ragweed plant response rating ([11]; 500 g ai/ha) | Ragweed plant response rating ([11]; Test C, 125 g ai/ha) | Ryegrass, Italian plant response rating ([12]; 500 g ai/ha) | Ryegrass, Italian plant response rating ([12]; Test C, 125 g ai/ha) | Kochia plant response rating ([13]; 500 g ai/ha) | Kochia plant response rating ([13]; Test C, 125 g ai/ha) | Corn plant response rating ([14]; 500 g ai/ha) | Corn plant response rating ([14]; Test C, 125 g ai/ha) | Plant response rating, Blackgrass [15, 29] | Plant response rating, Blackgrass [15, 30] | Goosegrass plant response rating ([16]; 500 g ai/ha) | Goosegrass plant response rating ([16]; Test C, 125 g ai/ha) | Plant response rating, Ragweed [17, 29] | Plant response rating, Rice (Flood) [18] | Plant response rating, Wheat [19, 29] | Plant response rating, Soybean [20, 29] | Plant response rating, Foxtail, Giant [21, 29] | Plant response rating, Foxtail, Giant [21, 30] | Plant response rating, Pigweed, Palmer [22, 29] | Foxtail, Giant plant response rating ([23]; 500 g ai/ha) | Foxtail, Giant plant response rating ([23]; Test C, 125 g ai/ha) | Wheat plant response rating ([24]; 500 g ai/ha) | Wheat plant response rating ([24]; Test C, 125 g ai/ha) | Pigweed, Palmer plant response rating ([25]; 500 g ai/ha) | Pigweed, Palmer plant response rating ([25]; Test C, 125 g ai/ha) | Plant response rating, Blackgrass [26] | Blackgrass plant response rating [26] | Plant response rating, Horseweed [27, 29] | Plant response rating, Horseweed [27, 30] | Plant response rating, Sedge, Umbrella (Flood) [28]

Cc1cccc2c1OC(C)CN2C(=O)c1cccc(-n2ncnc2C2CC2)c1 (racemic) [Compound 196]
30: Plant response rating, Pigweed, Palmer [22, 29]
20: Plant response rating, Corn [14, 31]
0: Plant response rating, Goosegrass [1, 29] | Plant response rating, Goosegrass [1, 30] | Plant response rating, Soybean [2, 31] | Soybean plant response rating ([2]; Test C, 125 g ai/ha) | Plant response rating, Corn [3, 29] | Plant response rating, Corn [3, 30] | Plant response rating, Ryegrass, Italian [4, 29] | Plant response rating, Ryegrass, Italian [4, 30] | Plant response rating, Ducksalad (Flood) [5] | Plant response rating, Galium [6, 29] | Plant response rating, Galium [6, 30] | Plant response rating, Barnyardgrass (Flood) [7] | Plant response rating, Oat, Wild [8, 29] | Plant response rating, Oat, Wild [8, 30] | Plant response rating, Kochia [9, 29] | Plant response rating, Kochia [9, 30] | Plant response rating, Oat, Wild [10, 31] | Oat, Wild plant response rating ([10]; Test C, 125 g ai/ha) | Plant response rating, Ragweed [11, 31] | Ragweed plant response rating ([11]; Test C, 125 g ai/ha) | Plant response rating, Ryegrass, Italian [12, 31] | Ryegrass, Italian plant response rating ([12]; Test C, 125 g ai/ha) | Plant response rating, Kochia [13, 31] | Kochia plant response rating ([13]; Test C, 125 g ai/ha) | Corn plant response rating ([14]; Test C, 125 g ai/ha) | Plant response rating, Blackgrass [15, 29] | Plant response rating, Blackgrass [15, 30] | Plant response rating, Goosegrass [16, 31] | Goosegrass plant response rating ([16]; Test C, 125 g ai/ha) | Plant response rating, Ragweed [17, 29] | Plant response rating, Ragweed [17, 30] | Plant response rating, Rice (Flood) [18] | Plant response rating, Wheat [19, 29] | Plant response rating, Wheat [19, 30] | Plant response rating, Soybean [20, 29] | Plant response rating, Soybean [20, 30] | Plant response rating, Foxtail, Giant [21, 29] | Plant response rating, Foxtail, Giant [21, 30] | Plant response rating, Pigweed, Palmer [22, 30] | Plant response rating, Foxtail, Giant [23, 31] | Foxtail, Giant plant response rating ([23]; Test C, 125 g ai/ha) | Plant response rating, Wheat [24, 31] | Wheat plant response rating ([24]; Test C, 125 g ai/ha) | Plant response rating, Pigweed, Palmer [25, 31] | Pigweed, Palmer plant response rating ([25]; Test C, 125 g ai/ha) | Plant response rating, Blackgrass [26] | Blackgrass plant response rating [26] | Plant response rating, Horseweed [27, 29] | Plant response rating, Horseweed [27, 30] | Plant response rating, Sedge, Umbrella (Flood) [28]
